Structures are written as SMILES. Structures can show the parent of a compound that is named as a salt.

Our source for the IC50 values is US8889704B2 (Array BioPharma Inc., priority 2011, dated 2014).

Common to all, as to type: biochemical
In assay [1] the target is T1, GST-tagged recombinant full-length human Pim-2 (Homo sapiens, UniProt Q9P1W9).
T1 construct: GST-tagged recombinant full-length human Pim-2; GST
Briefly: PIM-2 Assay (as Example A). The settings on record: averaged IC50; 4 μM ATP, 1.0 μM PIM2tide, 1.5 nM Pim-2. In a few lines: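 Radiometric filter-binding assay: GST-tagged full-length human Pim-2 (1.5 nM) phosphorylates 1.0 μM PIM2tide with 4 μM [γ-33P]ATP for 60 min at 22 °C in pH 7.4 MOPS buffer, 2% DMSO. 10-point 3-fold dilutions from 10 μM top dose; IC50 from 4-parameter fit of percent of control.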

Assay [2] deals with PIM-1 (Homo sapiens, UniProt P11309). Put plainly: Enzyme PIM-1 Assay ([33P]ATP incorporation into PIM2tide, filter plate). The settings on record: averaged IC50; 35 μM ATP, 7.5 μM PIM2tide, 0.25 nM PIM-1, 60 min at 22° C. Put shortly:
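Radiometric assay: 0.25 nM PIM-1 phosphorylates 7.5 μM PIM2tide with 35 μM [γ-33P]ATP in 20 mM MOPS pH 7.4, 10 mM MgCl2, 1 mM DTT, 0.005% Tween-20, 60 min at 22 °C. Product captured on P81 filters, scintillation counted; 10-point 3-fold curve from 10 μM top, 2% DMSO, IC50 by 4-parameter logistic fit of POC.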

For assay [3], the target named is recombinant rat PIM-3 (Rattus norvegicus, UniProt O70444). Briefly: PIM-3 Assay (as Example A). The settings on record: averaged IC50; 30 μM ATP, 3.75 μM PIM2tide, 0.5 nM PIM-3. Put shortly:
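Recombinant rat PIM-3 (0.5 nM) with 3.75 μM PIM2tide and 30 μM [γ-33P]ATP in MOPS pH 7.4 buffer, 60 min at 22 °C; labelled peptide captured on phosphocellulose filters and counted by scintillation. 10-point curve (top dose 10 μM, 2% DMSO); IC50 from 4-parameter fit of percent of control.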

PIM-1, sequence (P11309 whole entry, species assumed): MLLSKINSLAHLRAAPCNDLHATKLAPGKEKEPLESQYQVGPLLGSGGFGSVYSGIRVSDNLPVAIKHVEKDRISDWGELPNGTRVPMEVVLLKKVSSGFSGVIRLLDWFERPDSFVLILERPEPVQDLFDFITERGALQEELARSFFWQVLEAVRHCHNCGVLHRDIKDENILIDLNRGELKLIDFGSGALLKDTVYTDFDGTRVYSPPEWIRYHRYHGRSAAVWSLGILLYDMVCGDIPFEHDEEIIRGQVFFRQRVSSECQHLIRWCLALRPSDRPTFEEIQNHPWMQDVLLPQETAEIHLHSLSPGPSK
T1 sequence (Q9P1W9 whole entry): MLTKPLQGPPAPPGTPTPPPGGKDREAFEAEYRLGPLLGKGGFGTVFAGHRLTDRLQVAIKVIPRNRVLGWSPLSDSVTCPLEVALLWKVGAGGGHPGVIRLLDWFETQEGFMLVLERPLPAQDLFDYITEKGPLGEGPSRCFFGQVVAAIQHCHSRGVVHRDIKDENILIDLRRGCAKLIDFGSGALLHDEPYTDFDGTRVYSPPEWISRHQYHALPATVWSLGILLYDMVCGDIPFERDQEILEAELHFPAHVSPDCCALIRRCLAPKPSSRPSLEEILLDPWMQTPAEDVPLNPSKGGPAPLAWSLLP

As to `COCC(COC)Oc1cccc2ccc(-c3nnc4ccc([C@@H](N5CC[C@H](N)C5)C(F)(F)F)cn34)nc12` [Example 271, ((S)-1-((R)-1-(3-(8-(1,3-dimethoxypropan-2-yloxy)quinolin-2-yl)-[1,2,4]triazolo[4,3-a]pyridin-6-yl)-2,2,2-trifluoroethyl)pyrrolidin-3-aminedihydrochloride], the results for the IC50 in assay [1], in assay [2] and in assay [3] were 647 nM, 0.73 nM and 4.3 nM, respectively.

As to `CC(C)Oc1cccc2ccc(-c3nnc4ccc([C@@H](N5C[C@@H](N)[C@H](O)C5)C(F)(F)F)cn34)nc12` [Example 146, (3R,4R)-4-amino-1-((R)-2,2,2-trifluoro-1-(3-(8-isopropoxyquinolin-2-yl)-[1,2,4]triazolo[4,3-a]pyridin-6-yl)ethyl)pyrrolidin-3-ol dihydrochloride], the IC50 was determined as 34 nM in assay [1], 0.13 nM in assay [2] and 0.3 nM in assay [3].

Consider `N[C@H]1CCN([C@H](c2ccc3nnc(-c4ccc5cccc(C6(CO)CC6)c5n4)n3c2)C(F)(F)F)C1` [Example 114, (1-(2-(6-((R)-1-((S)-3-aminopyrrolidin-1-yl)-2,2,2-trifluoroethyl)-[1,2,4]triazolo[4,3-a]pyridin-3-yl)quinolin-8-yl)cyclopropyl)methanol dihydrochloride], for which the IC50 in assay [1] was 5.6 nM; in assay [2], 0.06 nM; in assay [3], 0.3 nM.

Regarding `N[C@H]1CCN([C@H](c2ccc3nnc(-c4ccc5cccc(Cl)c5n4)n3c2)C(F)(F)F)C1` [Example 182, (S)-1-((R)-2,2,2-trifluoro-1-(3-(8-chloroquinolin-2-yl)-[1,2,4]triazolo[4,3-a]pyridin-6-yl)ethyl)pyrrolidin-3-amine dihydrochloride], the IC50 in assay [1] is more than 100 nM; in assay [2], 0.75 nM; in assay [3], 4.1 nM.

With `COc1cc2nc(-c3nnc4ccc([C@@H](N5CC[C@H](N)C5)C(F)(F)F)cn34)ccc2cc1C` [Example 138, (S)-1-((R)-2,2,2-trifluoro-1-(3-(7-methoxy-6-methylquinolin-2-yl)-[1,2,4]triazolo[4,3-a]pyridin-6-yl)ethyl)pyrrolidin-3-amine hydrochloride], the results for the IC50 in assay [1], in assay [2] and in assay [3] were more than 100 nM, 2.03 nM and 9.5 nM, respectively.

In the case of `CC(c1ccc2nnc(-c3ccc4cccc(C(C)(C)C)c4n3)n2c1)N1CC[C@H](N)C1` (stereo partly drawn) [Example 17, (3S)-1-(1-(3-(8-tert-butylquinolin-2-yl)-[1,2,4]triazolo[4,3-a]pyridin-6-yl)ethyl)pyrrolidin-3-amine trihydrochloride], the values for the IC50 in assay [1], in assay [2] and in assay [3] were 12.4 nM, 0.06 nM and 1.2 nM, respectively.

Turning to `CC(C)Oc1cc(F)cc2ccc(-c3nnc4ccc([C@@H](N5CC[C@H](N)C5)C(F)(F)F)cn34)nc12` [Example 86, (S)-1-((R)-2,2,2-trifluoro-1-(3-(6-fluoro-8-isopropoxyquinolin-2-yl)-[1,2,4]triazolo[4,3-a]pyridin-6-yl)ethyl)pyrrolidin-3-amine hydrochloride], the IC50 in assay [1] came to 31 nM; in assay [2], 0.14 nM; in assay [3] it was 0.3 nM.

As for `COc1cccc2ccc(-c3nnc4ccc(C(N5C[C@H](O)[C@@H](O)C5)C(F)(F)F)cn34)nc12` (stereo partly drawn) [Example 19, (3S,4S)-1-(2,2,2-trifluoro-1-(3-(8-methoxyquinolin-2-yl)-[1,2,4]triazolo[4,3-a]pyridin-6-yl)ethyl)pyrrolidine-3,4-diol], the IC50 was more than 1000 nM in assay [1], 2.38 nM in assay [2] and 25 nM in assay [3].

Consider `COc1cccc2ccc(-c3nnc4ccc(C(N5CCCC5)C(F)(F)F)cn34)nc12` (stereo not drawn) [Example 6, 8-methoxy-2-(6-(2,2,2-trifluoro-1-(pyrrolidin-1-yl)ethyl)-[1,2,4]triazolo[4,3-a]pyridin-3-yl)quinoline], for which the IC50 in assay [1] is more than 1000 nM; in assay [2], 11.1 nM; in assay [3], more than 100 nM.

For `N[C@H]1CCN(C(c2ccc3nnc(-c4ccc5cccc(OCC6CC6)c5n4)n3c2)C(F)(F)F)C1` (stereo partly drawn) [Example 5, (3S)-1-(1-(3-(8-(cyclopropylmethoxy)quinolin-2-yl)-[1,2,4]triazolo[4,3-a]pyridin-6-yl)-2,2,2-trifluoroethyl)pyrrolidin-3-amine dihydrochloride], the IC50 in assay [1] was 131 nM; in assay [2] it was 0.25 nM; in assay [3] it was 2.6 nM.

Turning to `COCCOc1ccc2cc(F)c(-c3nnc4ccc([C@@H](N5CC[C@H](N)C5)C(F)(F)F)cn34)nc2c1` [Example 326, (S)-1-((R)-2,2,2-trifluoro-1-(3-(3-fluoro-7-(2-methoxyethoxy)quinolin-2-yl)-[1,2,4]triazolo[4,3-a]pyridin-6-yl)ethyl)pyrrolidin-3-amine], the figures for the IC50 in assay [1], in assay [2] and in assay [3] were 588 nM, 0.31 nM and 1.36 nM, respectively.

Turning to `COc1cccc2ccc(-c3nnc4ccc([C@H](N5CC[C@](C)(N)C5)C(F)(F)F)cn34)nc12` [Example 217, (S)-3-methyl-1-((S)-2,2,2-trifluoro-1-(3-(8-methoxyquinolin-2-yl)-[1,2,4]triazolo[4,3-a]pyridin-6-yl)ethyl)pyrrolidin-3-amine dihydrochloride], the results for the IC50 in assay [1], in assay [2] and in assay [3] were 40 nM, 0.32 nM and 0.4 nM, respectively.

Regarding `CC(C)Oc1cccc2ccc(-c3nnc4ccc([C@@H](N5C[C@@H](O)[C@H](O)C5)C(F)(F)F)cn34)nc12` [Example 72, (3R,4R)-1-((R)-2,2,2-trifluoro-1-(3-(8-isopropoxyquinolin-2-yl)-[1,2,4]triazolo[4,3-a]pyridin-6-yl)ethyl)pyrrolidine-3,4-diol], the values for the IC50 in assay [1], in assay [2] and in assay [3] were more than 100 nM, 0.19 nM and 2.9 nM, respectively.

Take `CC(C)Oc1cccc2ccc(-c3nnc4ccc([C@H](N5CC[C@@](C)(N)C5)C(F)(F)F)cn34)nc12` [Example 90, (R)-3-methyl-1-((S)-2,2,2-trifluoro-1-(3-(8-isopropoxyquinolin-2-yl)-[1,2,4]triazolo[4,3-a]pyridin-6-yl)ethyl)pyrrolidin-3-amine dihydrochloride]: the IC50 in assay [1] is more than 100 nM; in assay [2], 2.26 nM; in assay [3], 23 nM.

Regarding `CC1(O)CCN([C@H](c2ccc3nnc(-c4ccc5cccc(C(C)(C)C)c5n4)n3c2)C(F)(F)F)C1` (single isomer, unassigned; diastereomer 1) [Example 195, hydrochloride], the 50% inhibitory concentration (IC50) is more than 1000 nM in assay [1], 21.3 nM in assay [2] and 53 nM in assay [3].

As for `Cn1cc(-c2ccc3ccc(-c4nnc5ccc([C@H](N6CC[C@H](N)C6)C(F)(F)F)cn45)nc3c2)cn1` (single isomer, unassigned) [Example 14, tri-hydrochloride], the figures for the IC50 in assay [1], in assay [2] and in assay [3] were 76 nM, 0.15 nM and 0.4 nM, respectively.

As to `COCc1cccc2ccc(-c3nnc4ccc([C@@H](N5CC[C@H](N)C5)C(F)(F)F)cn34)nc12` [Example 185, (S)-1-((R)-2,2,2-trifluoro-1-(3-(8-(methoxymethyl)quinolin-2-yl)-[1,2,4]triazolo[4,3-a]pyridin-6-yl)ethyl)pyrrolidin-3-amine dihydrochloride], the figures for the IC50 in assay [1], in assay [2] and in assay [3] were more than 100 nM, 0.37 nM and 1 nM, respectively.

As to `CCOc1cc2nc(-c3nnc4ccc([C@H](N5CC[C@H](N)C5)C(F)(F)F)cn34)ccc2cc1F` [Example 249, (S)-1-((S)-1-(3-(7-ethoxy-6-fluoroquinolin-2-yl)-[1,2,4]triazolo[4,3-a]pyridin-6-yl)-2,2,2-trifluoroethyl)pyrrolidin-3-amine dihydrochloride], the values for the IC50 in assay [1], in assay [2] and in assay [3] were 83 nM, 0.51 nM and 0.8 nM, respectively.

Regarding `N[C@H]1CCN([C@H](c2ccc3nnc(-c4ccc5cc(F)c(OCC6CC6)cc5n4)n3c2)C(F)(F)F)C1` [Example 134, (S)-1-((R)-1-(3-(7-(cyclopropylmethoxy)-6-fluoroquinolin-2-yl)-[1,2,4]triazolo[4,3-a]pyridin-6-yl)-2,2,2-trifluoroethyl)pyrrolidin-3-amine hydrochloride], the results for the IC50 in assay [1], in assay [2] and in assay [3] were 48 nM, 0.38 nM and 0.6 nM, respectively.

As for `CN[C@H]1CCN([C@H](c2ccc3nnc(-c4ccc5ccc(C(=O)NC(C)(C)C)cc5n4)n3c2)C(F)(F)F)C1` [Example 58, N,N-tert-butyl-2-(6-((R)-2,2,2-trifluoro-1-((S)-3-(methylamino)pyrrolidin-1-yl)ethyl)-[1,2,4]triazolo[4,3-a]pyridin-3-yl)quinoline-7-carboxamide], the IC50 in assay [1] was more than 100 nM; in assay [2], 0.6 nM; in assay [3], 0.7 nM.

In the case of `N[C@H]1CCN([C@@H](c2ccc3nnc(-c4ccc5cccc(C6CC6)c5n4)n3c2)C(F)(F)F)C1` [Example 51, (S)-1-((S)-1-(3-(8-cyclopropylquinolin-2-yl)-[1,2,4]triazolo[4,3-a]pyridin-6-yl)-2,2,2-trifluoroethyl)pyrrolidin-3-amine dihydrochloride], the results for the IC50 in assay [1], in assay [2] and in assay [3] were 11 nM, 0.1 nM and 1.1 nM, respectively.
